Data published in patent US7674612B2, “Infectious, chimeric hepatitis C virus, methods of producing the same and methods of use thereof” (The Rockefeller University, priority 2005, dated 2010).

What was measured:
Assay type in all cases: cell-based, hepatitis C virus
HCVcc (FL-J6/JFH++) = assay: Drug inhibition of HCVcc RNA replication in infected Huh-7.5 cells (Taqman); settings: 48 hour post-infection; Huh-7.5 cells infected with FL-J6/JFH++; HCVcc RNA by Taqman
Experimental: Parallel cultures of Huh-7.5 cells were infected with FL-J6/JFH++ for 6 hours. Following removal of the inocula, cells were washed with PBS and fed with complete growth medium containing the indicated concentrations of antiviral drugs or a DMSO carrier control. RNAs were extracted after 2 days and the amount of accumulated HCVcc RNA quantitated by Taqman.
A panel of experimental HCV antiviral compounds were examined for their ability to inhibit RNA replication at 48 hour post-infection with HCVcc. One of these compounds, 2′-C-methyladenosine (Merck) is a nucleoside analog that inhibits the HCV RNA polymerase. Three other compounds (PI-1, Vertex; BILN2061, Boerhinger Ingelheim; and SCH6, Schering-Plough) target the serine protease activity of NS3 by competitive binding. […] For the polymerase inhibitor, the higher specific activity is likely due to the fact that we measured the accumulation of nascent RNAs post-infection, whereas replicon-based assays examine the decay of RNA after inhibiting established replication. The reduced activities of the protease inhibitors likely reflect reduced affinities of these drugs, developed to genotype 1 proteases, to bind to the JFH NS3 protein.

HCVcc = assay: Effect of culture additives on HCVcc production (TCID50 assay)
Experimental: The procedure for immunohistochemical staining for NS5A has been adapted to determine the infectious virus concentration within samples. In one system, virus-containing samples were subjected to serial 10-fold dilutions (typically, 10^−1 to 10^−6) in complete growth medium. Each dilution was then used to infect multiple wells of Huh-7.5 cells seeded in 96-well plates. Following 2 or 3 day incubation, the cells are fixed and subjected to immunohistochemical staining for NS5A expression, as above. The assay plate was then scored for the number of infected wells (i.e. at least one infected cell per well) for each dilution (FIG. 3) and the virus titer was then calculated as the 50% end-point tissue-culture infectious dose per ml (TCID50/ml) according to the statistical method of Reed and Muench (Am. J. Hyg. 27:493-497 (1938)). The sensitivity of this assay was determined by volume of the lowest dilution and the number of replicates tested, and was typically 15.8 TCID50s/ml.
It was of interest to ascertain culturing conditions that increase the titer of infectious HCVcc. A large number of cell culture conditions were tested for their effect on HCVcc production. These included the choice of cell culture media, amount and type of fetal calf serum, as well as the addition of various additive compounds. […] For example, the following titers were recorded: 3.10×10^6 TCID50 (25 mM N-acetylcysteine) vs. 1.06×10^6 TCID50 (5 mM N-acetylcysteine) vs. 2.65×10^5 TCID50 (no N-acetylcysteine). Thus, the use of this compound in HCV-containing cell cultures permits a significant increase in yield of infectious HCVcc. Conditions have also been established for serum-free propagation of Huh-7.5 cells and HCVcc infection and production. These conditions include, but are not limited to, Dulbecco's Modified Eagle's Medium (DMEM)/F12 medium containing 10 μg/ml transferrin, 2 μg/ml insulin, 7.6 μM free fatty acids, 0.3 μM selenium, 0.1 μM hydrocortisone, 0.20% bovine serum albumin, and 20 ng/ml epidermal growth factor.

HCVcc (FL-J6/JFH) = assay: Blocking of HCVcc infection of naïve Huh-7.5 by soluble recombinant CD81 or CD9 (NS5A immunostaining); settings: 10 μg/ml, 1 hour at 37° C., naïve Huh-7.5, day 3
Experimental: A) Independent samples of FL-J6/JFH++ (3.16×10^4 TCID50/ml) were mixed with the indicated amounts of recombinant human monoclonal antibodies (IgGl) against HCV E2 (open circles) or dengue-3 E proteins (filled triangle). Following a 1 hour incubation at 37° C., the virus titers of each sample were determined as described for FIG. 3. Shown are the average±s.d. of three independent samples. The amount of input virus is indicated by the dashed line. B) Samples of FL-J6/JFH were incubated for 1 hour at 37° C. with 10 μg/ml of soluble recombinant CD81 or CD9 and used to infect naïve Huh-7.5. Infections were monitored at day 3 by immunostaining as described in FIG. 2B. C). FL-J6/JFH was used to infect standard HepG2 cells or HepG2 cells engineered to express human CD81. Infections were monitored as described in FIG. 2B.
To further examine the role of E2 in HCVcc entry, virus was preincubated with a recombinant form of the large extracellular loop from CD81, which binds E2 and acts as a receptor for HCV. […] In addition, the role of CD81 in mediating HCVcc entry was examined by infecting HepG2 cells, which lack CD81 expression, or HepG2 cells that have been engineered to express human CD81.

Molecule | ability to inhibit RNA replication post-infection with HCVcc (HCVcc (FL-J6/JFH++)) | HCVcc infection after preincubation of virus with recombinant protein (HCVcc (FL-J6/JFH)) | also measured
C[C@@]1(O)[C@H](O)[C@@H](CO)O[C@H]1n1cnc2c(N)ncnc21 [2′-C-methyladenosine] | inhibited HCVcc replication | – | –
COc1ccc2c(O[C@@H]3C[C@H]4C(=O)N[C@]5(C(=O)O)C[C@H]5/C=C\CCCCC[C@H](NC(=O)OC5CCCC5)C(=O)N4C3)cc(-c3csc(NC(C)C)n3)nc2c1 [BILN2061] | inhibited HCVcc replication | – | –
CC(=O)N[C@@H](CS)C(=O)O [N-acetylcysteine] | – | – | HCVcc titer (HCVcc; 5 mM N-acetylcysteine in culture): 1.06×10^6 TCID50; HCVcc titer (HCVcc; 25 mM N-acetylcysteine in culture): 3.10×10^6 TCID50; levels of HCVcc as determined by TCID50 assay (HCVcc; additive in cell culture): consistently gave higher levels of HCVcc
recombinant form of the large extracellular loop from CD81: recombinant large extracellular loop of CD81, which binds E2 and acts as a receptor for HCV (protein) FVNKDQIAKDVKQFYDQALQQAVVDDDANNAKAVVKTFHETLDCCGSSTLTALTTSVLKNNLCPSGSNIISNLFKEDCHQKIDDLFSGK | – | blocked HCVcc infection | –
large extracellular loop of CD9: large extracellular loop of CD9, a related tetraspanin (control) (protein) SHKDEVIKEVQEFYKDTYNKLKTKDEPQRETLKAIHYALNCCGLAGGVEQFISDICPKKDVLETFTVKSCPDAIKEVFDNKFHI | – | did not | –
